The results in this text go back to PubChem BioAssay AID2305 (GlaxoSmithKline (GSK), 2010).

The subject of the assay is P. falciparum 3D7 growth, pLDH absorbance. Description: P. falciparum 3D7 growth inhibition, dose response, strain 3D7 (AID 2305).

`COc1cc2nc(SCCCC#N)n(C3CCCCCC3)c(=N)c2cc1OC` had an IC50 of 1140 nM.
Under `COC1CCC(C(=O)Nc2ccc(-c3cccc(-c4nc5ccc(C(F)(F)F)cc5[nH]4)c3)cc2)CC1` (centres undefined) stands 550 nM; under `COc1cccc(NC(=O)[C@H](C)n2c(=O)[nH]c3ccccc3c2=O)c1`, 760 nM.
With `Cc1cccc2[nH]c(-c3ccc(-c4cccc(NC(=O)NCc5ccc(F)cc5)c4)cc3)nc12` the figure was 150 nM; with `CC(=O)Nc1ccc(OCCCCN(Cc2ccccc2C(F)(F)F)c2ccc(C#N)c(C(F)(F)F)c2)cc1`, 1390 nM; with `Cc1oc(-c2ccccc2)nc1CCOc1ccc(C[C@H](Nc2ccccc2C(=O)c2ccccc2)C(=O)NCc2ccccn2)cc1`, 880 nM.
Compound `C=CCOc1ccccc1CNCC(O)c1cc(Br)cs1` (centres undefined) displayed an IC50 of 330 nM.
Under `O=C(Nc1cccc(-c2ccc(CN3CCCC3)cc2)c1)c1cccc(Cl)c1` stands 430 nM; under `Cc1cccc(C)c1OC(=O)[C@@H](C)[C@@H](O)C1(Sc2ccccc2)CCN(C)CC1`, 730 nM.
On to `CCOCCCNc1nc2cc(OC)c(OC)cc2c2nc(-c3ccccc3)nn12`, for which the IC50 worked out at 210 nM.
In turn, `CNC(=O)CSc1nnc(-c2ccc(C)cc2)c(-c2ccc(C)cc2)n1` came in with a half-maximal inhibitory concentration (IC50) of 600 nM.
In the case of `O=C(Nc1cccc(-c2ccc(-c3nc4ccc(C(F)(F)F)cc4[nH]3)cc2)c1)c1cnc[nH]1`, the IC50 was determined as 970 nM.
With `O=C(Nc1ccc(-c2nc3ccccc3[nH]2)cc1)c1ccc(-c2cccc([N+](=O)[O-])c2)o1` the figure was 270 nM; with `CCC(Nc1noc(-c2c(-c3ccccc3)noc2C)n1)c1ccccc1` (centres undefined), 970 nM; with `CC(C)N(C)C(=O)n1cnc(S(=O)(=O)C2C[C@@H]3CC[C@H]2C3)n1` (some centres undefined), 60 nM.
In turn, `CCOC(=O)C1=C(C)N=c2sc(=Cc3cc(Cl)ccc3O)c(=O)n2C1c1cc(OC)c(OC)cc1Br` (centres undefined) had an IC50 of 990 nM.
Under `CC(C)(C)c1ccc(NC(=O)c2cccc(CN3CCCN(Cc4cccc(O)c4)CC3)c2)cc1` stands 550 nM; under `CS(=O)(=O)Nc1ccc2c(C3CCN(CC4CCN(C(=O)/C=C/c5ccc(Cl)c(Cl)c5)CC4)CC3)c[nH]c2c1`, 760 nM.
With `O=C(Nc1cccc(-c2ccc(-c3nc4ccc(C(F)(F)F)cc4[nH]3)s2)c1)c1cnc[nH]1` the figure was 1110 nM; with `COc1cc(C(=O)NCCCN2CCN(c3cc(Cl)ccc3OC)CC2)ccc1-c1nc2cc(Cl)c(Cl)cc2[nH]1`, 730 nM.
Under `CCOc1c(C)cc(C(F)(F)F)cc1CNCCCNc1cc(=O)c2ccccc2[nH]1` stands 160 nM; under `CCCCCCNCc1c(O)ccc2c(CNCCCCCC)c(O)ccc12`, 130 nM; under `CC1(C)Cc2c(oc3ncn(CCn4cnc5oc6c(c5c4=N)CC(C)(C)SC6)c(=N)c23)CS1`, 720 nM.
`Cc1cc(N2CCCC2)nc(Nc2ccc(NC(=O)Nc3ccccc3)cc2)n1` gave an IC50 of 160 nM.
With `Cc1[nH]c(C)c(-c2ccc(-c3ccccc3Cl)nc2)c(=O)c1Cl` the figure was 220 nM; with `NC1=NC(c2ccccc2)(c2ccccc2)C(=O)N1Cc1ccccc1Br`, 860 nM; with `CC1(C)N=C(N)N=C(N)N1OCCNCc1ccc(Cl)cc1`, 160 nM.
With `CN(Cc1ccccc1)C1CCN(CCc2c[nH]c3ccc(F)cc23)CC1` the figure was 600 nM; with `Cc1onc(-c2ccccc2)c1C(=O)Nc1nc(-c2ccccn2)nc2ccsc12`, 690 nM; with `O=C(Nc1ccc2c(c1)CCN2C1CCN(Cc2csc3ccccc23)C1)c1ccco1` (centres undefined), 320 nM.
With `CCN(CC)CCCOc1ccc(Nc2nccc(-c3c(-c4cccc(NC(=O)c5c(F)cccc5F)c4)nn4ccccc34)n2)cc1F` the figure was 410 nM; with `N#Cc1ccc(C(=O)Nc2cccc(-c3ccc(CN4CCCC4)cc3)c2)cc1`, 720 nM.
With `CC(CN1CCN(C)CC1)C(=O)Nc1cccc(-c2ccc(-c3nc4ccccc4[nH]3)cc2)c1` (centres undefined), the 50% inhibitory concentration (IC50) is 940 nM.
Under `Cc1nnc2c(NC(=O)NC3CCCC3)cc3ccc(-c4cccc(CN5CCN(C)CC5)c4)cc3n12` stands 920 nM; under `CN(C)Cc1cc2c(O)c(Cc3ccccc3)ccc2o1`, 1090 nM.
`N[C@@H](CCN1CCC(c2cccc(O)c2)CC1)Cc1ccc(F)c(F)c1` displayed an IC50 of 1110 nM.
For the compound `CC(CN1CCN(C)CC1)C(=O)Nc1cccc(-c2ccc(-c3nc4ccc(C(F)(F)F)cc4[nH]3)cc2)c1` (centres undefined), the IC50 stood at 610 nM.
With `N#Cc1ccc(/C=C/C(=O)NCCCCCN2CCCN(C(=O)Nc3ccc(Cl)c(C(F)(F)F)c3)CC2)cc1` the figure was 440 nM; with `NC(=NCC1CC1c1ccccc1)c1cccc(C(N)=NCC2CC2c2ccccc2)n1` (centres undefined), 1760 nM.
In turn, `CC(C)n1c(C2CCN(CC3CCN(C(=O)/C=C/c4ccc(Cl)c(Cl)c4)CC3)CC2)nc2ccccc21` gave an IC50 of 1030 nM.
With `COc1cc2c(cc1OC)C(C(=O)c1ccccc1)=NCC2` the figure was 1090 nM.
The compound `O=C(c1cccc(COc2ccc3c(c2)CCN(C2CCCC2)CC3)c1)N1CCN(c2ccncc2)CC1` showed an IC50 of 740 nM.
`CC(=O)Nc1ccc(OCCN(Cc2ccccc2C(F)(F)F)c2ccc(C#N)c(C(F)(F)F)c2)cc1` displayed an IC50 of 440 nM.
Consider `COc1ccc2nccc([C@@H](O)CN3CCC(NS(=O)(=O)c4cc(Br)c(Br)s4)CC3)c2c1`, for which the IC50 stood at 850 nM.

By IC50 is commonly meant the midpoint of a concentration-inhibition curve. Lower therefore signals higher potency.
